According to the NIST ThermoML archive (doi:10.1021/acs.jced.9b00752):
± gives the expanded uncertainty stated by the source.

Assay: mn = molality of the nth substance listed, in mol/kg
Conditions: 100 kPa, Liquid, Vibrating tube method

With `O=C(O)[C@@H]1CCCN1` [L-proline] + O the mass density (273.65 K, m1 = 0.0132) was 1000.34 ± 0.11 kg/m3, the mass density (273.65 K, m1 = 0.0326) was 1001.02 ± 0.11 kg/m3 and the mass density (273.65 K, m1 = 0.0542) was 1001.77 ± 0.11 kg/m3. The mass density (273.65 K, m1 = 0.0692) was 1002.29 ± 0.11 kg/m3, the mass density (273.65 K, m1 = 0.0808) was 1002.69 ± 0.11 kg/m3 and the mass density (273.65 K, m1 = 0.1014) was 1003.41 ± 0.11 kg/m3. It also gave a mass density (273.65 K, m1 = 0.1196) of 1004.09 ± 0.11 kg/m3, a mass density (273.65 K, m1 = 0.1326) of 1004.5 ± 0.11 kg/m3 and a mass density (273.65 K, m1 = 0.1555) of 1005.27 ± 0.15 kg/m3. For the same compound, the mass density (273.65 K, m1 = 0.1568) was 1005.41 ± 0.15 kg/m3, the mass density (273.65 K, m1 = 0.1835) was 1006.23 ± 0.11 kg/m3 and the mass density (273.65 K, m1 = 0.2076) was 1007.04 ± 0.11 kg/m3. It also gave a mass density (273.65 K, m1 = 0.2212) of 1007.72 ± 0.12 kg/m3, a mass density (274.15 K, m1 = 0.0132) of 1000.37 ± 0.11 kg/m3 and a mass density (274.15 K, m1 = 0.0326) of 1001.05 ± 0.11 kg/m3. It also gave a mass density (274.15 K, m1 = 0.0542) of 1001.79 ± 0.11 kg/m3, a mass density (274.15 K, m1 = 0.0692) of 1002.31 ± 0.11 kg/m3 and a mass density (274.15 K, m1 = 0.0808) of 1002.71 ± 0.11 kg/m3. The mass density (274.15 K, m1 = 0.1014) was 1003.43 ± 0.11 kg/m3, the mass density (274.15 K, m1 = 0.1196) was 1004.11 ± 0.11 kg/m3 and the mass density (274.15 K, m1 = 0.1326) was 1004.52 ± 0.11 kg/m3. The mass density (274.15 K, m1 = 0.1555) was 1005.29 ± 0.15 kg/m3, the mass density (274.15 K, m1 = 0.1568) was 1005.42 ± 0.15 kg/m3 and the mass density (274.15 K, m1 = 0.1835) was 1006.25 ± 0.11 kg/m3. The mass density (274.15 K, m1 = 0.2076) was 1007.05 ± 0.11 kg/m3, the mass density (274.15 K, m1 = 0.2212) was 1007.73 ± 0.12 kg/m3 and the mass density (274.65 K, m1 = 0.0132) was 1000.39 ± 0.11 kg/m3. The mass density (274.65 K, m1 = 0.0326) was 1001.07 ± 0.11 kg/m3, the mass density (274.65 K, m1 = 0.0542) was 1001.81 ± 0.11 kg/m3 and the mass density (274.65 K, m1 = 0.0692) was 1002.32 ± 0.11 kg/m3. For the same compound, the mass density (274.65 K, m1 = 0.0808) was 1002.73 ± 0.11 kg/m3, the mass density (274.65 K, m1 = 0.1014) was 1003.45 ± 0.11 kg/m3 and the mass density (274.65 K, m1 = 0.1196) was 1004.12 ± 0.11 kg/m3. The mass density (274.65 K, m1 = 0.1326) was 1004.53 ± 0.11 kg/m3, the mass density (274.65 K, m1 = 0.1555) was 1005.3 ± 0.15 kg/m3 and the mass density (274.65 K, m1 = 0.1568) was 1005.43 ± 0.15 kg/m3. The mass density (274.65 K, m1 = 0.1835) was 1006.25 ± 0.11 kg/m3, the mass density (274.65 K, m1 = 0.2076) was 1007.05 ± 0.11 kg/m3 and the mass density (274.65 K, m1 = 0.2212) was 1007.73 ± 0.12 kg/m3. The mass density (275.15 K, m1 = 0.0132) was 1000.4 ± 0.11 kg/m3, the mass density (275.15 K, m1 = 0.0326) was 1001.08 ± 0.11 kg/m3 and the mass density (275.15 K, m1 = 0.0542) was 1001.82 ± 0.11 kg/m3. The mass density (275.15 K, m1 = 0.0692) was 1002.34 ± 0.11 kg/m3, the mass density (275.15 K, m1 = 0.0808) was 1002.74 ± 0.11 kg/m3 and the mass density (275.15 K, m1 = 0.1014) was 1003.46 ± 0.11 kg/m3. It also gave a mass density (275.15 K, m1 = 0.1196) of 1004.13 ± 0.11 kg/m3, a mass density (275.15 K, m1 = 0.1326) of 1004.54 ± 0.11 kg/m3 and a mass density (275.15 K, m1 = 0.1555) of 1005.3 ± 0.15 kg/m3. It also gave a mass density (275.15 K, m1 = 0.1568) of 1005.44 ± 0.15 kg/m3, a mass density (275.15 K, m1 = 0.1835) of 1006.26 ± 0.11 kg/m3 and a mass density (275.15 K, m1 = 0.2076) of 1007.05 ± 0.11 kg/m3. It also gave a mass density (275.15 K, m1 = 0.2212) of 1007.73 ± 0.12 kg/m3, a mass density (275.65 K, m1 = 0.0132) of 1000.41 ± 0.11 kg/m3 and a mass density (275.65 K, m1 = 0.0326) of 1001.09 ± 0.11 kg/m3. The mass density (275.65 K, m1 = 0.0542) was 1001.84 ± 0.11 kg/m3, the mass density (275.65 K, m1 = 0.0692) was 1002.34 ± 0.11 kg/m3 and the mass density (275.65 K, m1 = 0.0808) was 1002.75 ± 0.11 kg/m3. For the same compound, the mass density (275.65 K, m1 = 0.1014) was 1003.46 ± 0.11 kg/m3, the mass density (275.65 K, m1 = 0.1196) was 1004.13 ± 0.11 kg/m3 and the mass density (275.65 K, m1 = 0.1326) was 1004.54 ± 0.11 kg/m3. It also gave a mass density (275.65 K, m1 = 0.1555) of 1005.3 ± 0.15 kg/m3, a mass density (275.65 K, m1 = 0.1568) of 1005.44 ± 0.15 kg/m3 and a mass density (275.65 K, m1 = 0.1835) of 1006.26 ± 0.11 kg/m3. The mass density (275.65 K, m1 = 0.2076) was 1007.05 ± 0.11 kg/m3, the mass density (275.65 K, m1 = 0.2212) was 1007.72 ± 0.12 kg/m3 and the mass density (276.15 K, m1 = 0.0132) was 1000.42 ± 0.11 kg/m3. It also gave a mass density (276.15 K, m1 = 0.0326) of 1001.1 ± 0.11 kg/m3, a mass density (276.15 K, m1 = 0.0542) of 1001.84 ± 0.11 kg/m3 and a mass density (276.15 K, m1 = 0.0692) of 1002.35 ± 0.11 kg/m3. The mass density (276.15 K, m1 = 0.0808) was 1002.75 ± 0.11 kg/m3, the mass density (276.15 K, m1 = 0.1014) was 1003.46 ± 0.11 kg/m3 and the mass density (276.15 K, m1 = 0.1196) was 1004.13 ± 0.11 kg/m3. It also gave a mass density (276.15 K, m1 = 0.1326) of 1004.54 ± 0.11 kg/m3, a mass density (276.15 K, m1 = 0.1555) of 1005.3 ± 0.15 kg/m3 and a mass density (276.15 K, m1 = 0.1568) of 1005.44 ± 0.15 kg/m3. It also gave a mass density (276.15 K, m1 = 0.1835) of 1006.25 ± 0.11 kg/m3, a mass density (276.15 K, m1 = 0.2076) of 1007.04 ± 0.11 kg/m3 and a mass density (276.15 K, m1 = 0.2212) of 1007.72 ± 0.12 kg/m3. For the same compound, the mass density (276.65 K, m1 = 0.0132) was 1000.43 ± 0.11 kg/m3, the mass density (276.65 K, m1 = 0.0326) was 1001.11 ± 0.11 kg/m3 and the mass density (276.65 K, m1 = 0.0542) was 1001.84 ± 0.11 kg/m3. It also gave a mass density (276.65 K, m1 = 0.0692) of 1002.35 ± 0.11 kg/m3, a mass density (276.65 K, m1 = 0.0808) of 1002.75 ± 0.11 kg/m3 and a mass density (276.65 K, m1 = 0.1014) of 1003.46 ± 0.11 kg/m3. The mass density (276.65 K, m1 = 0.1196) was 1004.13 ± 0.11 kg/m3, the mass density (276.65 K, m1 = 0.1326) was 1004.54 ± 0.11 kg/m3 and the mass density (276.65 K, m1 = 0.1555) was 1005.3 ± 0.15 kg/m3. The mass density (276.65 K, m1 = 0.1568) was 1005.43 ± 0.15 kg/m3, the mass density (276.65 K, m1 = 0.1835) was 1006.25 ± 0.11 kg/m3 and the mass density (276.65 K, m1 = 0.2076) was 1007.04 ± 0.11 kg/m3. The mass density (276.65 K, m1 = 0.2212) was 1007.71 ± 0.12 kg/m3, the mass density (277.15 K, m1 = 0.0132) was 1000.43 ± 0.11 kg/m3 and the mass density (277.15 K, m1 = 0.0326) was 1001.11 ± 0.11 kg/m3. The mass density (277.15 K, m1 = 0.0542) was 1001.85 ± 0.11 kg/m3, the mass density (277.15 K, m1 = 0.0692) was 1002.35 ± 0.11 kg/m3 and the mass density (277.15 K, m1 = 0.0808) was 1002.75 ± 0.11 kg/m3. It also gave a mass density (277.15 K, m1 = 0.1014) of 1003.46 ± 0.11 kg/m3, a mass density (277.15 K, m1 = 0.1196) of 1004.13 ± 0.11 kg/m3 and a mass density (277.15 K, m1 = 0.1326) of 1004.54 ± 0.11 kg/m3. It also gave a mass density (277.15 K, m1 = 0.1555) of 1005.29 ± 0.15 kg/m3, a mass density (277.15 K, m1 = 0.1568) of 1005.43 ± 0.15 kg/m3 and a mass density (277.15 K, m1 = 0.1835) of 1006.24 ± 0.11 kg/m3. It also gave a mass density (277.15 K, m1 = 0.2076) of 1007.03 ± 0.11 kg/m3, a mass density (277.15 K, m1 = 0.2212) of 1007.7 ± 0.12 kg/m3 and a mass density (277.65 K, m1 = 0.0132) of 1000.43 ± 0.11 kg/m3. It also gave a mass density (277.65 K, m1 = 0.0326) of 1001.1 ± 0.11 kg/m3, a mass density (277.65 K, m1 = 0.0542) of 1001.84 ± 0.11 kg/m3 and a mass density (277.65 K, m1 = 0.0692) of 1002.34 ± 0.11 kg/m3. It also gave a mass density (277.65 K, m1 = 0.0808) of 1002.74 ± 0.11 kg/m3, a mass density (277.65 K, m1 = 0.1014) of 1003.45 ± 0.11 kg/m3 and a mass density (277.65 K, m1 = 0.1196) of 1004.12 ± 0.11 kg/m3. It also gave a mass density (277.65 K, m1 = 0.1326) of 1004.52 ± 0.11 kg/m3, a mass density (277.65 K, m1 = 0.1555) of 1005.28 ± 0.15 kg/m3 and a mass density (277.65 K, m1 = 0.1568) of 1005.41 ± 0.15 kg/m3. For the same compound, the mass density (277.65 K, m1 = 0.1835) was 1006.22 ± 0.11 kg/m3, the mass density (277.65 K, m1 = 0.2076) was 1007.01 ± 0.11 kg/m3 and the mass density (277.65 K, m1 = 0.2212) was 1007.68 ± 0.12 kg/m3. The mass density (278.15 K, m1 = 0.0132) was 1000.42 ± 0.11 kg/m3, the mass density (278.15 K, m1 = 0.0326) was 1001.09 ± 0.11 kg/m3 and the mass density (278.15 K, m1 = 0.0542) was 1001.83 ± 0.11 kg/m3. For the same compound, the mass density (278.15 K, m1 = 0.0692) was 1002.33 ± 0.11 kg/m3, the mass density (278.15 K, m1 = 0.0808) was 1002.73 ± 0.11 kg/m3 and the mass density (278.15 K, m1 = 0.1014) was 1003.43 ± 0.11 kg/m3. It also gave a mass density (278.15 K, m1 = 0.1196) of 1004.1 ± 0.11 kg/m3, a mass density (278.15 K, m1 = 0.1326) of 1004.51 ± 0.11 kg/m3 and a mass density (278.15 K, m1 = 0.1555) of 1005.26 ± 0.15 kg/m3. It also gave a mass density (278.15 K, m1 = 0.1568) of 1005.39 ± 0.15 kg/m3, a mass density (278.15 K, m1 = 0.1835) of 1006.2 ± 0.11 kg/m3 and a mass density (278.15 K, m1 = 0.2076) of 1006.99 ± 0.11 kg/m3. The mass density (278.15 K, m1 = 0.2212) was 1007.66 ± 0.12 kg/m3.
